Experimental data taken from ChEMBL document CHEMBL1201862, “PubChem BioAssay data set” (2004).
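Values below derive from 48-hour exposures of cells grown in 96-well plates, with endpoints linearly interpolated between the two concentrations bracketing the appropriate inhibition level. Abbreviation: GI50, concentration required for 50% inhibition of growth.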 Calls of active or inactive are those of the source. Cut-off read from the data, not from the text of the source: active = GI50 up to about 1.1 µM and inactive = higher.

Legend:
Experiment in all cases: NCI tumour cell line growth inhibition, 48 h
TK-10 = tested on: TK-10
NCI-H23 = tested on: NCI-H23
SK-MEL-2 = tested on: SK-MEL-2
ACHN = tested on: ACHN
NCI-H226 = tested on: NCI-H226
COLO 205 = tested on: COLO 205
SK-OV-3 = tested on: SK-OV-3
NCI/ADR-RES = tested on: NCI/ADR-RES
NCI-H522 = tested on: NCI-H522
SNB-19 = tested on: SNB-19
A549 = tested on: A549
SF-295 = tested on: SF-295
DU-145 = tested on: DU-145
CAKI-1 = tested on: CAKI-1
SNB-75 = tested on: SNB-75
HCC 2998 = tested on: HCC 2998
OVCAR-5 = tested on: OVCAR-5
NCI-H460 = tested on: NCI-H460
HT-29 = tested on: HT-29
HL-60 = tested on: HL-60

| SMILES | GI50 (TK-10) | GI50 (NCI-H23) | GI50 (SK-MEL-2) | GI50 (ACHN) | GI50 (NCI-H226) | GI50 (COLO 205) | GI50 (SK-OV-3) | GI50 (NCI/ADR-RES) | GI50 (NCI-H522) | GI50 (SNB-19) | GI50 (A549) | GI50 (SF-295) | GI50 (DU-145) | GI50 (CAKI-1) | GI50 (SNB-75) | GI50 (HCC 2998) | GI50 (OVCAR-5) | GI50 (NCI-H460) | GI50 (HT-29) | GI50 (HL-60) |
| --- | --- | --- | --- | --- | --- | --- | --- | --- | --- | --- | --- | --- | --- | --- | --- | --- | --- | --- | --- | --- |
| Cc1ccc(S(=O)(=O)c2ccsc2NC(=O)c2ccccc2)cc1 | 36.3 µM (inactive) | > 31.6 µM (inactive) | > 57 µM (inactive) | > 42.6 µM (inactive) | > 60.4 µM (inactive) | > 100 µM (inactive) | 46.9 µM (inactive) | 35.2 µM (inactive) | > 100 µM (inactive) | > 64.3 µM (inactive) | 48.1 µM (inactive) | 22.1 µM (inactive) | > 100 µM (inactive) | 40.7 µM (inactive) | 28.2 µM (inactive) | > 100 µM (inactive) | > 100 µM (inactive) | 41.1 µM (inactive) |  |  |
| N#CC(C#N)=C(N)/C(C#N)=C/c1ccc2ccccc2n1 | > 100 µM (inactive) | 31.6 µM (inactive) | 35 µM (inactive) | 17.2 µM (inactive) | 93.5 µM (inactive) |  | 35.3 µM (inactive) | 34.3 µM (inactive) |  | 24.3 µM (inactive) | > 100 µM (inactive) | 21.3 µM (inactive) | > 100 µM (inactive) | 22.6 µM (inactive) | 25.8 µM (inactive) | 77.3 µM (inactive) | > 100 µM (inactive) | 85.7 µM (inactive) | 18.6 µM (inactive) |  |
| O=[N+]([O-])c1ccc(CSc2nn(Cc3ccc([N+](=O)[O-])cc3)cc3ncnc2-3)cc1 | 29 µM (inactive) | 26.4 µM (inactive) | 19.7 µM (inactive) | 27.5 µM (inactive) | 38.4 µM (inactive) | 39.5 µM (inactive) | > 100 µM (inactive) | 44 µM (inactive) | 22.3 µM (inactive) |  | 39 µM (inactive) | 45.3 µM (inactive) |  | 35.2 µM (inactive) | 34.1 µM (inactive) | 35.6 µM (inactive) | > 100 µM (inactive) |  | 29.6 µM (inactive) | 21.5 µM (inactive) |
| Cn1c(C(C#N)c2nc(Cl)ncc2Br)nc2ccccc21 (stereo not given) | > 100 µM (inactive) | > 100 µM (inactive) |  | > 100 µM (inactive) | > 100 µM (inactive) | > 100 µM (inactive) | > 100 µM (inactive) | > 100 µM (inactive) | > 100 µM (inactive) | > 100 µM (inactive) | > 100 µM (inactive) | > 100 µM (inactive) | > 100 µM (inactive) | > 100 µM (inactive) | 82 µM (inactive) |  | > 100 µM (inactive) | > 100 µM (inactive) | > 100 µM (inactive) |  |
| CC1(C)OC2OC(COC(=O)c3ccc(C#N)cc3)C3OC(C)(C)OC3C2O1 (stereo not given) | > 75 µM (inactive) | > 75 µM (inactive) | > 75 µM (inactive) | > 75 µM (inactive) | > 75 µM (inactive) | > 75 µM (inactive) | > 75 µM (inactive) | > 75 µM (inactive) | > 75 µM (inactive) | > 75 µM (inactive) | > 75 µM (inactive) | > 75 µM (inactive) | > 75 µM (inactive) | > 75 µM (inactive) | > 75 µM (inactive) | > 75 µM (inactive) | > 75 µM (inactive) |  | > 75 µM (inactive) |  |
| Cc1cc(C)n(-c2c(O)ccc(O)c2-n2nc(C)cc2C)n1 | > 100 µM (inactive) | > 100 µM (inactive) | > 100 µM (inactive) | > 100 µM (inactive) |  | > 100 µM (inactive) | > 100 µM (inactive) |  | > 100 µM (inactive) | > 100 µM (inactive) | > 100 µM (inactive) | 81.3 µM (inactive) |  | > 100 µM (inactive) | > 100 µM (inactive) | > 100 µM (inactive) | > 100 µM (inactive) | > 100 µM (inactive) | > 100 µM (inactive) | > 100 µM (inactive) |
| CC1=NN(C(=O)Cc2ccccc2)C(=O)/C1=C\c1ccccc1O | > 100 µM (inactive) | > 100 µM (inactive) | > 100 µM (inactive) | > 100 µM (inactive) | > 100 µM (inactive) | > 100 µM (inactive) | > 100 µM (inactive) |  | > 100 µM (inactive) | > 100 µM (inactive) | > 100 µM (inactive) | > 100 µM (inactive) |  | > 100 µM (inactive) |  | > 100 µM (inactive) | > 100 µM (inactive) | > 100 µM (inactive) | > 100 µM (inactive) | > 100 µM (inactive) |
| CCn1cnc2c(NC(C)=O)ncnc21 | > 100 µM (inactive) | > 100 µM (inactive) | > 100 µM (inactive) | > 100 µM (inactive) | > 100 µM (inactive) | > 100 µM (inactive) | > 100 µM (inactive) | > 100 µM (inactive) | > 100 µM (inactive) | > 100 µM (inactive) | > 100 µM (inactive) | > 100 µM (inactive) | > 100 µM (inactive) | > 100 µM (inactive) | 1.33 µM (inactive) | > 100 µM (inactive) | > 100 µM (inactive) | > 100 µM (inactive) | > 100 µM (inactive) |  |
| Nc1ccc(Sc2nnc(N)s2)cc1 | > 100 µM (inactive) |  |  | > 100 µM (inactive) |  | > 100 µM (inactive) | > 100 µM (inactive) | > 100 µM (inactive) | > 100 µM (inactive) | > 100 µM (inactive) | > 100 µM (inactive) | > 100 µM (inactive) |  |  | > 100 µM (inactive) | > 100 µM (inactive) | > 100 µM (inactive) | > 100 µM (inactive) |  | > 100 µM (inactive) |
| COC(=O)C1=C(C(=O)OC)C2(C)C=CC1O2 (stereo not given) | 2.49 µM (inactive) | 17.8 µM (inactive) | 21.4 µM (inactive) | 5.78 µM (inactive) | 19.6 µM (inactive) | 4.22 µM (inactive) | > 100 µM (inactive) | 19.6 µM (inactive) | 2 µM (inactive) | > 100 µM (inactive) | 99.8 µM (inactive) |  | 17.9 µM (inactive) |  | 24.3 µM (inactive) | 16.2 µM (inactive) | 17.6 µM (inactive) | > 100 µM (inactive) | 15.2 µM (inactive) |  |
| CCSc1[nH]c(/N=C(/NC(=O)c2ccccc2)NC(C)C)c(C(N)=O)c1C(N)=O | > 10 µM (inactive) | > 10 µM (inactive) |  |  |  | > 10 µM (inactive) | > 10 µM (inactive) |  |  |  | > 10 µM (inactive) | > 10 µM (inactive) | > 10 µM (inactive) | > 10 µM (inactive) | > 10 µM (inactive) | > 10 µM (inactive) |  |  | > 10 µM (inactive) | > 10 µM (inactive) |
| CN1c2ccccc2N(C(=O)c2ccc(Cl)cc2)C(CC(=O)O)c2cccn21 (stereo not given) | > 100 µM (inactive) | > 100 µM (inactive) | > 100 µM (inactive) | > 100 µM (inactive) | > 100 µM (inactive) | > 100 µM (inactive) | > 100 µM (inactive) |  | > 100 µM (inactive) | > 100 µM (inactive) | > 100 µM (inactive) | > 100 µM (inactive) |  | > 100 µM (inactive) | > 100 µM (inactive) | > 100 µM (inactive) | > 100 µM (inactive) | > 100 µM (inactive) | > 100 µM (inactive) | > 100 µM (inactive) |
| CCC(=O)C(C)C(=O)C(=O)C(=O)OC (stereo not given) | > 100 µM (inactive) | > 100 µM (inactive) | > 100 µM (inactive) | > 100 µM (inactive) | > 100 µM (inactive) | > 60.5 µM (inactive) | > 100 µM (inactive) |  | > 100 µM (inactive) | > 100 µM (inactive) | > 100 µM (inactive) | > 100 µM (inactive) |  | > 100 µM (inactive) | > 100 µM (inactive) | > 100 µM (inactive) | > 100 µM (inactive) | > 100 µM (inactive) | 97.1 µM (inactive) | > 44.4 µM (inactive) |
| CCCOc1ccc(/C(Cl)=C(\C=O)c2ccc(OC)c(OC)c2)cc1OCCC | 28.1 µM (inactive) | 3.46 µM (inactive) | 11.6 µM (inactive) | 9.31 µM (inactive) | 13.2 µM (inactive) | 4.22 µM (inactive) | 30.1 µM (inactive) |  | 2 µM (inactive) | 23.1 µM (inactive) | 5.43 µM (inactive) | 13.7 µM (inactive) |  | 75.3 µM (inactive) | 11.9 µM (inactive) | 3.53 µM (inactive) | 39.3 µM (inactive) | 7.1 µM (inactive) | 5.2 µM (inactive) | 1.84 µM (inactive) |
| Brc1ccc2ns[s+]c2c1 | 5.28 µM (inactive) | 20.9 µM (inactive) | 6.75 µM (inactive) | 0.897 µM (active) | > 26.3 µM (inactive) | 4.91 µM (inactive) | > 100 µM (inactive) |  | 4.79 µM (inactive) | 29.9 µM (inactive) | 3.6 µM (inactive) | 4.46 µM (inactive) |  | 2.49 µM (inactive) | > 60 µM (inactive) | 5.25 µM (inactive) |  | 3.3 µM (inactive) | 1.3 µM (inactive) | 2.59 µM (inactive) |
| CCOC(=O)CNC(=O)C(CSC(=O)N(O)c1ccc(Cl)cc1)NC(=O)CCC(N)C(=O)OCC (stereo not given) |  | > 50 µM (inactive) | > 50 µM (inactive) | > 50 µM (inactive) | 1.32 µM (inactive) | > 50 µM (inactive) | > 50 µM (inactive) | > 50 µM (inactive) |  | 9.53 µM (inactive) | > 50 µM (inactive) | > 50 µM (inactive) | > 50 µM (inactive) | > 50 µM (inactive) |  | 4.75 µM (inactive) | > 50 µM (inactive) | > 50 µM (inactive) | > 50 µM (inactive) |  |
